In the NIST ThermoML archive (doi:10.1016/j.fluid.2010.03.040):
± gives the expanded uncertainty stated by the source.

Conditions: Capillary rise

COCCOC [1,2-dimethoxyethane]
Conditions | surface tension liquid-gas [mN/m]
278.17 K | 26.52 ± 0.41
283.17 K | 25.97 ± 0.41
288.18 K | 25.28 ± 0.41
293.17 K | 24.67 ± 0.4
298.03 K | 23.94 ± 0.4
303.15 K | 23.42 ± 0.4
308.12 K | 22.84 ± 0.4
313.16 K | 22.25 ± 0.4
318.17 K | 21.56 ± 0.4
323.18 K | 21.02 ± 0.4
328.17 K | 20.41 ± 0.4
333.17 K | 19.83 ± 0.4
338.17 K | 19.29 ± 0.4
343.17 K | 18.74 ± 0.4
348.17 K | 18.12 ± 0.4
353.18 K | 17.59 ± 0.4
358.17 K | 16.91 ± 0.4
363.17 K | 16.35 ± 0.4
368.17 K | 15.74 ± 0.4
373.17 K | 15.23 ± 0.4

CCOC(=O)OCC [diethyl carbonate]
Conditions | surface tension liquid-gas [mN/m]
273.18 K | 29.15 ± 0.41
278.18 K | 28.63 ± 0.41
283.18 K | 28.07 ± 0.41
288.18 K | 27.48 ± 0.41
293.16 K | 26.81 ± 0.41
298.1 K | 26.26 ± 0.41
303.17 K | 25.64 ± 0.41
308.11 K | 25.14 ± 0.41
313.19 K | 24.48 ± 0.41
318.16 K | 24.03 ± 0.41
323.16 K | 23.47 ± 0.41
328.12 K | 22.98 ± 0.41
333.18 K | 22.35 ± 0.41
338.17 K | 21.81 ± 0.41
343.17 K | 21.23 ± 0.4
348.17 K | 20.69 ± 0.4
353.19 K | 20.16 ± 0.4
358.18 K | 19.64 ± 0.4
363.16 K | 19.13 ± 0.4
368.18 K | 18.69 ± 0.4
373.17 K | 18.01 ± 0.4

CCOC(=O)CCCCC(=O)OCC [diethyl hexanedioate]
Conditions | surface tension liquid-gas [mN/m]
293.16 K | 32.7 ± 0.4
298.09 K | 32.2 ± 0.4
303.17 K | 31.6 ± 0.4
308.11 K | 31 ± 0.4
313.18 K | 30.3 ± 0.4
318.15 K | 29.7 ± 0.4
323.17 K | 29.2 ± 0.4
328.12 K | 28.7 ± 0.4
333.16 K | 28.3 ± 0.4
338.16 K | 27.7 ± 0.4
343.15 K | 27.2 ± 0.4
348.13 K | 26.6 ± 0.4
353.16 K | 26.2 ± 0.4
358.13 K | 25.8 ± 0.4
363.13 K | 25.3 ± 0.4
368.15 K | 24.8 ± 0.4
373.14 K | 24.3 ± 0.4
